The values below come from PMC8191380 (Nucleosides, nucleotides & nucleic acids, 2019).

For series [1] the following is noted: cited from earlier work.
For series [2], the system named is HIV. The settings on record: cited from earlier work.
Another series relates to wild-type HBV. The settings on record: cited from earlier work.
The subject of the next series is entecavir-resistant HBV. The settings on record: cited from earlier work.
The next series relates to HIV-1. The settings on record: cited from earlier work.
The subject of series [3] is HBV. The settings on record: cited from earlier work; for EC50: read-out: anti-HBV activity EC50.
In series [4] the test system is HBV. The settings on record: read-out: anti-HBV activity EC50; cited from earlier work.
The test system of the next series is MT-2 cells. As to the kind of experiment: Cytotoxicity in MT-2 cells. It is filed as cell-based. The settings on record: for CC50: read-out: CC50 (50% cytotoxic concentration).
Series [5] can be described thus: Cytotoxicity in MT-2 cells. It is filed as cell-based. The settings on record: human.
Series [6] concerns HIV. The settings on record: read-out: anti-HIV activity EC50; reported in 1992; cited from earlier work.
The subject of series [7] is HBV. Description: Anti-HBV assay in HBV-producing HepG2 2.2.15 cells. The settings on record: read-out: EC50 (50% effective concentration; concentration that inhibits 50% of virus replication). The format is cell-based, Hepatitis B virus.
The test system of series [8] is HBV. The settings on record: read-out: anti-HBV activity EC50; cited from earlier work. This is another data set of the same source.
Setting [9] is: Hepatitis B virus, HepG2 2.2.15, 336 h.
Setting [10] is: HepG2 2.2.15 cells, day 14, HBV DNA.

Each structure is given as a SMILES string. Like-named read-outs stand apart in the source and are kept apart here. A value given as a limit tells only on which side of the number the result lay.

For `[N-]=[N+]=N[C@]1(CO)O[C@@H](n2ccc(N)nc2=O)C[C@@H]1O` [4′-azido-2′-deoxycytidine], the “cytotoxicity CC25” value in series [1] is 0.21 µM.

Consider `N#C[C@]1(CO)O[C@@H](n2cnc3c(=O)[nH]c(N)nc32)C[C@@H]1O` [Compound 1, 4′-cyano-2′-deoxyguanosine], for which the “anti-HIV activity (in words)” value in the series with HIV [2] is on record as “potent anti-HIV activity”. Further, the “replication of wild-type HBV (in words)” value in the series on wild-type HBV is “block the replication”. The “replication of entecavir-resistant HBV (in words)” value in the series with entecavir-resistant HBV is given as “block the replication”.

Regarding `N#C[C@]1(CO)O[C@@H](n2cnc3c(N)nc(N)nc32)C[C@@H]1O` [Compound 2, 4′-cyano-2-amino-2′-deoxyadenosine], in the series on HIV [2], the “anti-HIV activity (in words)” value is recorded as “potent anti-HIV activity”. Also, the “replication of wild-type HBV (in words)” value in the series on wild-type HBV is reported as “block the replication”. Further, the “replication of entecavir-resistant HBV (in words)” value in the series on entecavir-resistant HBV is on record as “block the replication”.

On to `[N-]=[N+]=N[C@]1(CO)O[C@@H](n2cnc3c(=O)[nH]c(N)nc32)C[C@@H]1O` [Compound 3, 4′-azido-2′-deoxyguanosine], for which the “potency against HIV-1 (in words)” value in the series on HIV-1 was “highly potent”. Besides, in the series with HBV [3], the “potency against HBV (in words)” value is given as “highly potent” and the EC50 was 0.0097 µM.

For the compound `[N-]=[N+]=N[C@]1(CO)O[C@@H](n2cnc3c(N)nc(N)nc32)C[C@@H]1O` [Compound 4, 4′-azido-2-amino-2′-deoxyadenosine], the “potency against HIV-1 (in words)” value in the series on HIV-1 is “highly potent”. Besides, in the series with HBV [3], the “potency against HBV (in words)” value is listed as “highly potent” and the EC50 was 0.0051 µM.

Take `[N-]=[N+]=N[C@]1(CO)O[C@@H](n2ccc(N)nc2=O)[C@H](F)[C@@H]1O` [Compound 5, 2′-deoxy-2′-P-fluoro-4′-azido cytidine]: in the series with HBV [4], the EC50 is 0.12 µM.

Turning to `Cc1cn([C@H]2C[C@H](O)[C@](CO)(N=[N+]=[N-])O2)c(=O)[nH]c1=O` [Compound 6, 4′-azido thymidine], in the series on MT-2 cells, the “no cytotoxicity up to (concentration)” value is > 100 µM. In addition, the CC50 in [5] is > 100 µM. For the same compound, the EC50 is 0.01 µM in the series on HIV [6] and 0.63 ± 0.29 µM in the series with HBV [7] (setting [9]).

Turning to `Cc1cn([C@H]2C[C@H](F)[C@@H](CO)O2)c(=O)nc1N` [Compound 8, FddMeC], the EC50 in the series with HBV [8] is 0.54 µM.

For the compound `Cc1cn([C@H]2C[C@H](O)[C@](CO)(N=[N+]=[N-])O2)c(=O)nc1N` [Compound 10, 4′-Azido-2′-deoxy-5-methylcytidine], in the series on MT-2 cells, the “no cytotoxicity up to (concentration)” value is > 100 µM. For the same compound, the CC50 in [5] was > 100 µM. Further, the EC50 in the series on HBV [7] (setting [9]) was found to be 5.99 ± 5.54 µM.

Take `COc1nc(=O)n(C2CC(O)C(CO)(N=[N+]=[N-])O2)cc1C` (stereo not shown) [Compound 11, 4′-Azido-O^4-methylthymidine]: in the series on MT-2 cells, the CC50 was > 100 µM. Moreover, the EC50 in the series on HBV [7] (setting [10]) is > 100 µM.

Regarding `CCOc1nc(=O)n([C@H]2C[C@H](O)[C@](CO)(N=[N+]=[N-])O2)cc1C` [Compound 12, 4′-Azido-O^4-ethylthymidine], the CC50 with MT-2 cells is > 100 µM. Further, the EC50 with HBV [7] (setting [10]) is > 100 µM.

For the compound `CNc1nc(=O)n([C@H]2C[C@H](O)[C@](CO)(N=[N+]=[N-])O2)cc1C` [Compound 13, 4′-Azido-2′-deoxy-N4,5-dimethylcytidine], the CC50 in series [5] was > 100 µM. Also, the EC50 with HBV [7] (setting [9]) was > 100 µM.

`CCNc1nc(=O)n([C@H]2C[C@H](O)[C@](CO)(N=[N+]=[N-])O2)cc1C` [Compound 14, 4′-Azido-2′-deoxy-N^4-ethyl-5-methylcytidine]: the CC50 in [5] was > 100 µM. For the same compound, the EC50 in the series with HBV [7] (setting [9]) is > 100 µM.

Consider `Cc1cn([C@H]2C[C@H](O)[C@](CO)(N=[N+]=[N-])O2)c(=O)nc1NC1CC1` [Compound 15, 4′-Azido-N′-cyclopropyl-2′-deoxy-5-methylcytidine], for which the CC50 in the series with MT-2 cells is > 100 µM. The EC50 in the series on HBV [7] (setting [10]) is > 100 µM.

Consider `C=C1[C@H](CO)[C@@H](O)C[C@@H]1n1cnc2c(=O)[nH]c(N)nc21` [Entecavir], for which, in [5], the CC50 stood at 57.2 ± 5.2 µM. Further, the EC50 in the series with HBV [7] (setting [9]) came to 0.00675 ± 0.000353 µM.
